In ChEMBL document CHEMBL1828590 (J Med Chem, 2011):

Assays:
Mus musculus [1] = test: Toxicity in athymic nu/nu Harlan mouse xenografted with human HCT116 cells assessed as mouse survival at 100 mg/kg, po QD for 21 days measured on day 22; format: organism-based, HCT-116; set-up: dose 100 mg/kg, route oral; conditions: in vivo, 504 h
Mus musculus [2] = test: Toxicity in athymic nu/nu Harlan mouse xenografted with human HCT116 cells assessed as body weight loss at 100 mg/kg, po QD for 21 days measured on day 8; format: organism-based, HCT-116; set-up: dose 100 mg/kg, route oral; conditions: in vivo, 504 h
[3] = Half life in mouse liver microsomes; format: ADME, Microsome; conditions: liver microsomes
Mus musculus [4] = test: Toxicity in athymic nu/nu Harlan mouse xenografted with human HCT116 cells assessed as mouse survival at 50 mg/kg, po QD for 21 days measured on day 22; format: organism-based, HCT-116; set-up: dose 50 mg/kg, route oral; conditions: in vivo, 504 h
HCT-116 [5] = test: Antitumor activity against human HCT116 cells xenografted in athymic nu/nu Harlan mouse assessed as tumor growth inhibition at 100 mg/kg, po qd for 21 days measured on day 22; format: functional; conditions: read-out: TGI
[6] = Half life in rat liver microsomes; format: ADME, Microsome
[7] = Half life in human liver microsomes; format: ADME, Microsome
[8] = Half life in dog liver microsomes; format: ADME, Canis lupus familiaris, Microsome
[9] = Kinetic solubility of the compound at pH 7 with […] DMSO; format: physicochemical; conditions: buffer, read-out: Kinetic_solubility
HCT-116 [10] = test: Antitumor activity against human HCT116 cells xenografted in athymic nu/nu Harlan mouse assessed as tumor growth inhibition at 50 mg/kg, po qd for 21 days measured on day 22; format: functional; conditions: read-out: TGI
Mus musculus [11] = test: Toxicity in athymic nu/nu Harlan mouse xenografted with human HCT116 cells assessed as body weight loss at 200 mg/kg, po QD for 21 days measured on day 19; format: organism-based, HCT-116; set-up: dose 200 mg/kg, route oral; conditions: in vivo, 504 h
HCT-116 [12] = test: Antitumor activity against human HCT116 cells xenografted in athymic nu/nu Harlan mouse assessed as tumor growth inhibition at 200 mg/kg, po qd for 21 days measured on day 22; format: functional; conditions: read-out: TGI
COLO 205 = test: Antiproliferative activity against human COLO205 cells after 96 hrs by celltiter 96 assay; format: functional, cell-based; conditions: COLO 205, 96 h
Mus musculus [13] = test: Toxicity in athymic nu/nu Harlan mouse xenografted with human HCT116 cells assessed as body weight loss at 200 mg/kg, po QD for 21 days measured on day 8; format: organism-based, HCT-116; set-up: dose 200 mg/kg, route oral; conditions: in vivo, 504 h
Mus musculus [14] = test: Toxicity in athymic nu/nu Harlan mouse xenografted with human HCT116 cells assessed as body weight loss at 300 mg/kg, po QD for 21 days measured on day 19; format: organism-based, HCT-116; set-up: dose 300 mg/kg, route oral; conditions: in vivo, 504 h
Mus musculus [15] = test: Toxicity in athymic nu/nu Harlan mouse xenografted with human HCT116 cells assessed as mouse survival at 200 mg/kg, po QD for 21 days measured on day 22; format: organism-based, HCT-116; set-up: dose 200 mg/kg, route oral; conditions: in vivo, 504 h
Mus musculus [16] = test: Toxicity in nude BALB/c mouse xenografted with human A2780 cells assessed as maximum body weight loss at 200 mg/kg, po QD for 21 days measured on day 13; format: organism-based; set-up: dose 200 mg/kg, route oral; conditions: in vivo, 504 h
[17] = Oral bioavailability in nude BALB/c mouse at 50 mg/kg; format: ADME, organism-based; conditions: in vivo
Mus musculus [18] = test: Toxicity in nude BALB/c mouse xenografted with human HCT116 cells assessed as body weight loss at 200 mg/kg, po QD for 21 days measured on day 19; format: organism-based, HCT-116; set-up: dose 200 mg/kg, route oral; conditions: in vivo, 504 h
Mus musculus [19] = test: Toxicity in nude BALB/c mouse xenografted with human HCT116 cells assessed as mouse survival at 200 mg/kg, po QD for 21 days measured on day 22; format: organism-based, HCT-116; set-up: dose 200 mg/kg, route oral; conditions: in vivo, 504 h

In the case of `CCCCc1nc2cc(/C=C/C(=O)NO)ccc2n1CCNC(C)C.Cl.Cl`, the Activity (Mus musculus [1]) is reported as “Non-toxic”, the Activity (Mus musculus [2]) is reported as 5% and the half-life [3] is reported as 0.6 h. For the same compound, the Activity (Mus musculus [4]) was “Non-toxic”, the inhibition in vivo at 100 mg/kg (HCT-116 [5]) was 60% and the half-life [6] was 0.055 h. For the same compound, the half-life [7] was > 1 h, the half-life [8] was > 1 h and the solubility kinetic [9] was > 200 µM. The inhibition in vivo at 50 mg/kg (HCT-116 [10]) was 19%, the Activity (Mus musculus [11]) was 7.9% and the inhibition in vivo at 200 mg/kg (HCT-116 [12]) was 90%.
In the case of `O=C(CCCCCCC(=O)Nc1ccccc1)NO` [VORINOSTAT], the IC50 (COLO 205) is reported as 2.12 µM, the Activity (Mus musculus [13]) is reported as 8.9% and the half-life [3] is reported as > 1 h. The Activity (Mus musculus [14]) was 5.5%, the Activity (Mus musculus [15]) was “Non-toxic” and the Activity (Mus musculus [16]) was 9.3%. For the same compound, the half-life [6] was > 1 h, the half-life [7] was > 1 h and the bioavailability [17] was 8.3%. The Activity (Mus musculus [18]) was 1.9%, the half-life [8] was > 1 h and the Activity (Mus musculus [19]) was “Non-toxic”. For the same compound, the solubility kinetic [9] was > 200 µM and the Activity (Mus musculus [11]) was 4.6%.
